According to paper PMC10748060, “In Silico and In Vitro Evaluation of the Mechanism of Action of Three VX809-Based Hybrid Derivatives as Correctors of the F508del CFTR Protein” (Pharmaceuticals, 2023):
“Also recorded” adds a separate entry of the source.

Assays:
HEK-t cells = type: cell-based; design: TDMax (maximum toxicity): unit not given here; conditions: 24 h incubation, mean ± SEM
Experimental: (§1) In both cases, media were supplemented with 10% FBS, 2 mM L-Glutamine, 1% PenStrep (100 U/mL), 1 mg/mL geneticin (G418), and 0.6 mg/mL zeocin as selection agents. Cells were grown under standard CO2 and temperature conditions. Confluence of cell was avoided to prevent loss of differentiation.
(§2) Cells were seeded into 48-well plates at a concentration of 0.3 × 10^5 cells per well. […] After exposition, cells were trypsinised and harvested for toxicity evaluation. To avoid an underestimation of the number of dead cells, the cells that were detached from the plates during exposure to the compounds were collected and considered. For each condition tested, at least four technical replicates were evaluated. In each well, at least 100 cells were considered.

CFBE41O^− cells = type: cell-based; conditions: 24 h incubation, mean ± SEM
Experimental: as §1, §2

FRT cells = type: cell-based; conditions: 24 h incubation, mean ± SEM
Experimental: as §1, §2

[1] = Trypan blue cell viability at the working concentrations, all three cell lines; type: cell-based; conditions: human (HEK-t, CFBE41O^−) and rat (FRT), in all three cell lines; for viability at 24 h, 3 µM: at 3 μM
Experimental: as §1, §2

F508del CFTR [2] = target: T1, F508del CFTR (Homo sapiens, UniProt P13569, DEL508-508); test: YFP functional assay in FRT cells
Experimental: (§3) The YFP functional assay was applied to assess whether the increase in protein expression induced by treatment with the compounds under investigation correlated with an increase in F508del CFTR channel activity.
(§4) Cells were then incubated with 60 µL PBS plus forskolin (20 µM) and VX-770 (1 µM) for 25 min to maximally stimulate F508del-CFTR. The cells were then transferred to a microplate reader (Tristar2 S, Berthold Technologies, Bad Wildbad, Germany) equipped with 485 nm excitation and 535 nm emission filters.
(§5) Iodide influx was detected as fluorescence quenching as the I^− anion bound to intracellular YFP. After background subtraction and normalisation to the average fluorescence before NaI addition, the initial fluorescence decay rate (QR) was derived by fitting the signal with an exponential function.

F508del CFTR [3] = target: T1, F508del CFTR; test: YFP functional assay in CFBE41O^− cells
Experimental: as §3, §4, §5

MSD1 CFTR domain = MSD1 CFTR domain (Homo sapiens, UniProt P13569); test: Western blot of CFTR single domain MSD1 in HEK-t cells; conditions: 3 µM VX661, 3 µM VX445, 2 µM 2a, 7m, 7a, normalised to actin and to untreated domain (times of DMSO control), mean ± sem
F508del NBD1 = F508del NBD1 (Homo sapiens, UniProt P13569, DEL508-508); test: Cycloheximide chase assay of F508del NBD1 in HEK-t cells; conditions: for effect on stability / half-life of F508del NBD1 versus DMSO control: cycloheximide chase, result in words; for F508del NBD1 expression after cycloheximide, relative to time 0: 3 µM VX661/VX445, 2 µM 2a/7m/7a, mean ± sem
Experimental: The stability of NBD1-F508del was evaluated according to a previously established procedure [38, 50, 51]. […] Cells were harvested at six different time points (after 0, 1, 2, 4, 6, and 8 h), and samples of whole-cell SDS extracts were subjected to immunoblot analysis.

F508del CFTR [4] = target: T1, F508del CFTR; design: Assessing the Impact of Corrector Combinations on Full-Length F508del CFTR Function; expressed in transfected cells; host or cells: Fisher rat thyroid (FRT) cells; human bronchial epithelial CFBE41o- cells; conditions: Figure 1B; read-out: corrector half-maximal effective concentration (EC50); cited from earlier work
R domain of CFTR = R domain of CFTR (Homo sapiens, UniProt P13569); test: Western blot of CFTR R domain in HEK-t cells; conditions: 3 µM VX661, 3 µM VX445, 2 µM 2a, 7m, 7a, normalised to actin and to untreated domain, mean ± sem
WT NBD1 CFTR domain = WT NBD1 CFTR domain (Homo sapiens, UniProt P13569); test: Western blot of CFTR single domain WT NBD1 in HEK-t cells; conditions: 3 µM VX661, 3 µM VX445, 2 µM 2a, 7m, 7a, normalised to actin and to untreated domain, mean ± sem
[5] = 3 μM VX661, 3 μM VX445, 2 μM 2a, 7m, 7a, 18 h, forskolin + VX-770 stimulation

Sequence of F508del NBD1 (P13569 with tags, fused parts or gaps DEL508-508): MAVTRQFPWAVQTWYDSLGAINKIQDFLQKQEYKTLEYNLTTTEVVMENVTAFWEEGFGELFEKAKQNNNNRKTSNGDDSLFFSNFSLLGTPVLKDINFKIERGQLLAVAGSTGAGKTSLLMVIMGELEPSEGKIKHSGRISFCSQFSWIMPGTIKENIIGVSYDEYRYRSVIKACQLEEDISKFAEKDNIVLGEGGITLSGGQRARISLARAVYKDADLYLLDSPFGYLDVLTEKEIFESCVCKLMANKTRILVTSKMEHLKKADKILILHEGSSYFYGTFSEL
T1 sequence (P13569 with tags, fused parts or gaps DEL508-508): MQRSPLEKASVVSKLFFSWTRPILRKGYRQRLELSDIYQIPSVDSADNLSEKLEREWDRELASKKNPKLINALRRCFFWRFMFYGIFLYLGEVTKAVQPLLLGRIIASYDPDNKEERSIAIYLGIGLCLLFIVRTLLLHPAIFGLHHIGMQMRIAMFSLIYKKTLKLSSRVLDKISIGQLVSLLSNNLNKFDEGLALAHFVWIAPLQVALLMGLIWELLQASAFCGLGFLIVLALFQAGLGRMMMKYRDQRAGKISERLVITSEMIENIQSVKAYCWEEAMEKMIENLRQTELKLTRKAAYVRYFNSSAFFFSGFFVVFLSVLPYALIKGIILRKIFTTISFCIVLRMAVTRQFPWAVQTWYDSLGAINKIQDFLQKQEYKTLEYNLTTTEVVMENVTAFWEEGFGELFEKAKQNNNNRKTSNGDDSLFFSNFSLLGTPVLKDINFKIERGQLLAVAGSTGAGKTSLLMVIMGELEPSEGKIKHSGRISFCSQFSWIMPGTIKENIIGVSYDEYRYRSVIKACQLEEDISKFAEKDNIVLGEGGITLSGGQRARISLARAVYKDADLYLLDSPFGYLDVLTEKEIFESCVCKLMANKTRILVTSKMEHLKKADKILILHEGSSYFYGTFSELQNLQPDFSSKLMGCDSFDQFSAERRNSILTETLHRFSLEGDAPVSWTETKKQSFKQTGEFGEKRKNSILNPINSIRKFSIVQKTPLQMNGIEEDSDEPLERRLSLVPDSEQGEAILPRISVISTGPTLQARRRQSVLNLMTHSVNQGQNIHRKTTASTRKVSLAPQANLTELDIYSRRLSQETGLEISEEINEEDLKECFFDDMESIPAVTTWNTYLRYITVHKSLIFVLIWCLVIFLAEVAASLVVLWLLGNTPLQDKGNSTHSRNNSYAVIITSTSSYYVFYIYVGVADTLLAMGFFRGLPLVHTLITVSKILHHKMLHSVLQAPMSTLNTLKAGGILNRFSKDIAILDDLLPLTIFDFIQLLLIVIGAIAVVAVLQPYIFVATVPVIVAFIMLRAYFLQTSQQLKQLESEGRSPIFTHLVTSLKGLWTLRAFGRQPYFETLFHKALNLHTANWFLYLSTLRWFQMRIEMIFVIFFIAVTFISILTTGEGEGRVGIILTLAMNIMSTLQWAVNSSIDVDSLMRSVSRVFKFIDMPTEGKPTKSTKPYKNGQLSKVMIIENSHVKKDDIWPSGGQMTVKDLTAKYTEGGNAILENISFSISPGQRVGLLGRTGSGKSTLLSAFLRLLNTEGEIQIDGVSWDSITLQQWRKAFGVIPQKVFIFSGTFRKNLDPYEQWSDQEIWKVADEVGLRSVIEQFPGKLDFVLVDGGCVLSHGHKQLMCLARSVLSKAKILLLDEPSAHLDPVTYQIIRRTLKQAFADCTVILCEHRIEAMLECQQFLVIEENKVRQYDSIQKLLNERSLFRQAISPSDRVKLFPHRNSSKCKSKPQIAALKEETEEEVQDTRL
Sequence of R domain of CFTR (P13569 645-834): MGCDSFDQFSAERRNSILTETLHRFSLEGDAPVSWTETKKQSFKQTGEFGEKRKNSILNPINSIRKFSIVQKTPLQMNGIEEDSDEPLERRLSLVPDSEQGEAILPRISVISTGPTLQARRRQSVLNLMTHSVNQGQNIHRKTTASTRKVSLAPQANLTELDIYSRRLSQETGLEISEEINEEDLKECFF
Sequence of WT NBD1 CFTR domain (P13569 348-633): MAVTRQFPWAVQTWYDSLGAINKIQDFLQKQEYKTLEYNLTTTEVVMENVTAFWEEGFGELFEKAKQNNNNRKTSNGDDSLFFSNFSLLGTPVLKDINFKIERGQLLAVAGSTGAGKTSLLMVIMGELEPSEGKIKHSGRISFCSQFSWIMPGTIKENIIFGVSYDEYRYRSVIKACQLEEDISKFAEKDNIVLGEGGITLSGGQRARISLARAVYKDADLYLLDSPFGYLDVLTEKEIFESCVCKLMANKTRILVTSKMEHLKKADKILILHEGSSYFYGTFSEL
Sequence of MSD1 CFTR domain (P13569 1-388): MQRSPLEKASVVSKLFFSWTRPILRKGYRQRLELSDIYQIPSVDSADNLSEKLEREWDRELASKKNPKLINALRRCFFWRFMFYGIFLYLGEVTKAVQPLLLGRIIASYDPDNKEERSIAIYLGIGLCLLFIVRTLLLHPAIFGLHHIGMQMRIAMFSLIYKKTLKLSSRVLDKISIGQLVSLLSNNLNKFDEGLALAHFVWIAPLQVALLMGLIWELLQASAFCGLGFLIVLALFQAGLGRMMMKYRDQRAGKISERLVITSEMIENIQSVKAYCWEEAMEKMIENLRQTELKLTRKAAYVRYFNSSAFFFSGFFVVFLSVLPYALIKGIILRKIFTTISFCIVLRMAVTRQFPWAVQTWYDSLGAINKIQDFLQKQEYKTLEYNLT

Row | Structure (SMILES) | TD50 (concentration required to achieve half maximum toxicity) (HEK-t cells) [µM] | TD50 (concentration required to achieve half maximum toxicity) (CFBE41O^− cells) [µM] | TDMax (maximum toxicity) (CFBE41O^− cells) [µM] | TD50 (concentration required to achieve half maximum toxicity) (FRT cells) [µM] | TDMax (maximum toxicity) (FRT cells) [µM] | F508del NBD1 expression level, % of the initial level (F508del NBD1; 2 h after cycloheximide) [%] | F508del NBD1 expression level, % of the initial level (F508del NBD1; 4 h after cycloheximide) [%] | F508del NBD1 expression level, % of the initial level (F508del NBD1; 6 h after cycloheximide) [%] | effect on stability / half-life of F508del NBD1 versus DMSO control (F508del NBD1) | F508del NBD1 expression after cycloheximide, relative to time 0 (F508del NBD1; time 0 h) | F508del NBD1 expression after cycloheximide, relative to time 0 (F508del NBD1; time 1 h) | F508del NBD1 expression after cycloheximide, relative to time 0 (F508del NBD1; time 2 h) | F508del NBD1 expression after cycloheximide, relative to time 0 (F508del NBD1; time 4 h) | F508del NBD1 expression after cycloheximide, relative to time 0 (F508del NBD1; time 6 h) | F508del NBD1 expression after cycloheximide, relative to time 0 (F508del NBD1; time 8 h) | viability at 24 h, 3 µM [1] [%] | R domain expression level (R domain of CFTR) | WT NBD1 expression level (WT NBD1 CFTR domain) | further results
1 | O=C(c1ccccc1)c1sc(NC(=O)C2(c3ccc4c(c3)OCO4)CC2)nc1-c1ccccc1 [2a] | 2.44 ± 1.03 | 10.11 ± 1.80 | 14.44 ± 0.06 | 9.24 ± 2.25 | 20.56 ± 0.06 | 78 | 63 | 45 | significant increase; also recorded: significantly higher | 1.00 ± 0.08 | 0.87 ± 0.05 | 0.78 ± 0.08 | 0.63 ± 0.03 | 0.45± 0.06 | 0.34 ± 0.03 |  |  |  | TDMax (maximum toxicity) (HEK-t cells): 5.78 ± 0.04; viability at 24 h, 2 µM ([1]; at 2 μM): ≥ 90%; increase of YFP initial quenching rate (QR, iodide influx) over the control condition (F508del CFTR [2]; [5]): significantly increased; F508del CFTR channel activity (QR) of double combinations with VX445, compared with VX445 alone (F508del CFTR [2]; result in words): none of the combinations with compound 2a produced an effect greater; F508del CFTR channel activity (QR) of double combinations with VX661, compared with VX661 alone (F508del CFTR [2]; result in words): none of the combinations with compound 2a produced an effect greater; increase of YFP initial quenching rate (QR, iodide influx) over the control condition (F508del CFTR [3]; [5]): significantly increased; F508del CFTR channel activity (QR) of double combinations with VX445, compared with VX445 alone (F508del CFTR [3]; result in words): none of the combinations with compound 2a produced an effect greater; F508del CFTR channel activity (QR) of double combinations with VX661, compared with VX661 alone (F508del CFTR [3]; result in words): none of the combinations with compound 2a produced an effect greater; MSD1 expression level (MSD1 CFTR domain): 1.04 ± 0.05
2 | CSc1cccc(Nc2nc(-c3cccc(Cl)c3)cs2)c1 [FCG] |  |  |  |  |  |  |  |  |  |  |  |  |  |  |  |  |  |  | EC50 (F508del CFTR [4]): 5.3 µM
3 | Cc1nn(C)cc1S(=O)(=O)NC(=O)c1ccc(-n2ccc(OCC(C)(C)C(F)(F)F)n2)nc1N1C[C@@H](C)CC1(C)C [VX445, elexacaftor] | 9.60 ± 2.25 | 11.75 ± 3.42 | 23.60 ± 0.07 | 4.29 ± 0.32 | 10.79 ± 0.01 | 65 | 42 | 27 | did not prolong the half-life | 1.00 ± 0.04 | 0.75 ± 0.12 | 0.65 ± 0.07 | 0.42 ± 0.09 | 0.27 ± 0.05 | 0.14 ± 0.03 | ≥ 90 | 1.01 ± 0.04 | 1.02 ± 0.18 | 
4 | CC(C)(CO)c1cc2cc(NC(=O)C3(c4ccc5c(c4)OC(F)(F)O5)CC3)c(F)cc2n1C[C@@H](O)CO [VX661, tezacaftor] | 27.15 ± 17.88 | 7.51 ± 2.22 | 15.62 ± 0.06 | 11.09 ± 3.22 | 23.59 ± 0.08 | 62 | 45 | 26 | did not prolong the half-life | 1.00 ± 0.02 | 0.73 ± 0.12 | 0.62 ± 0.13 | 0.45 ± 0.11 | 0.26 ± 0.08 | 0.09 ± 0.03 | ≥ 90 | 1.06± 0.09 | 1.00± 0.15 | 
